Source: paper PMC5933457, “Probing biological activity through structural modelling of ligand-receptor interactions of 2,4-disubstituted thiazole retinoids” (Bioorganic & Medicinal Chemistry, 2018)

Columns and labels:
RARβ = details: RARβ2 isoform; cited from earlier work
TERA2.cl.SP12 stem cells = experiment: Real-time PCR for neuronal markers NeuroD1 and PAX6; type: cell-based, human; details: 10 μM, Fig. 7B; for induction of PAX6 expression, rank order: up to 7 days
Procedure: Second, NeuroD1 and PAX6 are retinoid-induced transcription factors involved in regulating neuronal differentiation,[49], [50] and are expressed in neurons derived from TERA2.cl.SP12 stem cells.
(§1) Real time PCR was carried out immediately after treatment on both cell line lysates with 0.25% trypsin–EDTA. TERA-2.cl.SP12 cells were seeded at a density of 1 × 10^6 cells per 25 cm^2 flask, 12–24 h before treatment. […] SH-SY5Y cells were seeded at a density of 1 × 10^6 cells per 25 cm^2 flask, 12–24 h before treatment. […] Commercial RNA extraction kits (Qiagen) and reverse transcription (Applied Biosystems) kits were purchased and procedures used according to the manufacturer instructions. Real time PCR was performed using the TaqMan® Universal PCR Master Mix (Life technologies) and TaqMan® gene expression system (Applied Biosystems) based on probe sets to the specific genes to be analysed. Genecodes used are as follows: RARβ (Hs00233407_m1), CYP26-A1 (Hs00175627_m1), RARα (Hs00940448_g1), RARγ (Hs01559234_m1), PAX-6 (Hs01088112_m1), NeuroD1 (Hs01922995_s1). GADPH (Hs02758991_g1) and ACTB (Hs99999903_m1) were used as internal control genes for TERA-2.cl.SP12 and SH-SY5Y, respectively.

[1] = test system: SH-SY5Y human neuroblastoma cells; experiment: Retinoid-induced gene expression (RARα, RARβ, RARγ, CYP26A1) by real-time PCR; type: cell-based; details: for induction of RARα and RARγ expression: 10 μM retinoid, over a 12 h period, Fig. 8A; for induction of RARβ expression, rank order / induction of CYP26A1 expression, rank order: dose-response 1 nM to 1 μM, 8 h treatment, Fig. 8B; for induction of RARβ expression, rank order: all doses; for induction of CYP26A1 expression, rank order: doses <1 μM
Procedure: As an additional assay of biological activity, short-term changes in expression of four genes in SH-SY5Y cells was employed; a neuroblastoma-derived lineage that undergoes neuronal differentiation in response to retinoid treatment. The four genes assayed, RARα, RARβ, RARγ and CYP26A, have RAREs associated with their promoters and may be directly regulated by retinoids.[51], [52]
as §1

Q: What does the source list for `CCOCCOc1nc(-c2ccc(C(=O)O)cc2)sc1C` [GZ18]?
A: RAR-type selectivity (RARβ): RARβ2-specific retinoid; NeuroD1 mRNA expression, rank order (TERA2.cl.SP12 stem cells; after 5 days): GZ25 > GZ18 > ATRA; induction of PAX6 expression, rank order (TERA2.cl.SP12 stem cells): GZ25 ≫ ATRA > GZ18; time-course of RARβ and CYP26A1 induction ([1]; 10 μM retinoid treatment): less active in comparison to either GZ25 or ATRA; induction of RARα and RARγ expression [1]: lower levels of induction; induction of RARβ expression, rank order [1]: GZ25 ≫ ATRA > GZ18; induction of CYP26A1 expression, rank order [1]: GZ25 > GZ18 > ATRA

Q: For `Cc1sc(-c2ccc(C(=O)O)cc2)nc1-c1ccc2c(c1)C(C)(C)CCC2(C)C` [GZ25], which “NeuroD1 mRNA expression, rank order” value (TERA2.cl.SP12 stem cells; after 5 days) is on record?
A: The value was “GZ25 > GZ18 > ATRA”.

Q: What about the “NeuroD1 mRNA expression, rank order” value (TERA2.cl.SP12 stem cells; after 7 days) of the same compound?
A: The value was “ATRA > GZ25”.

Q: What about the “induction of PAX6 expression, rank order” value (TERA2.cl.SP12 stem cells) of the same compound?
A: The value was “GZ25 ≫ ATRA > GZ18”.

Q: What about the “induction of RARα and RARγ expression” value [1] of the same compound?
A: Its value is “lower levels of induction”.

Q: What about the “induction of RARβ expression, rank order” value [1] of the same compound?
A: Its value is “GZ25 ≫ ATRA > GZ18”.

Q: And the “induction of CYP26A1 expression, rank order” value [1]?
A: Its value is “GZ25 > GZ18 > ATRA”.
